Among the data in patent US8741934B2, “Inhibitors of ion channels” (Pfizer Limited, priority 2007, dated 2014) are IC50 values, retold here.

Molecules are shown by their SMILES. pIC50: −log10 of the molar value.

The target of this test is T1, hSCN3A sodium channels (Homo sapiens, UniProt Q9NY46).
T1 construct: expressed in transfected cells
Put plainly: hSCN3A electrophysiology, whole-cell patch-clamp or PatchXpress 7000, estimated IC-50 (Table B). In kind it is cell-based. The note with it: estimated IC-50; hSCN3A cells, whole-cell patch-clamp or PatchXpress 7000; read-out: SCN3A EIC-50. An outline of the steps: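 Stably transfected HEK cells, whole-cell voltage clamp at 22-24° C, manual or PatchXpress 7000. Cells held at empirically determined inactivation V1/2; current evoked by 20 msec step to 0 mV after 8 sec prepulse to V1/2.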

T1 sequence (Q9NY46 whole entry): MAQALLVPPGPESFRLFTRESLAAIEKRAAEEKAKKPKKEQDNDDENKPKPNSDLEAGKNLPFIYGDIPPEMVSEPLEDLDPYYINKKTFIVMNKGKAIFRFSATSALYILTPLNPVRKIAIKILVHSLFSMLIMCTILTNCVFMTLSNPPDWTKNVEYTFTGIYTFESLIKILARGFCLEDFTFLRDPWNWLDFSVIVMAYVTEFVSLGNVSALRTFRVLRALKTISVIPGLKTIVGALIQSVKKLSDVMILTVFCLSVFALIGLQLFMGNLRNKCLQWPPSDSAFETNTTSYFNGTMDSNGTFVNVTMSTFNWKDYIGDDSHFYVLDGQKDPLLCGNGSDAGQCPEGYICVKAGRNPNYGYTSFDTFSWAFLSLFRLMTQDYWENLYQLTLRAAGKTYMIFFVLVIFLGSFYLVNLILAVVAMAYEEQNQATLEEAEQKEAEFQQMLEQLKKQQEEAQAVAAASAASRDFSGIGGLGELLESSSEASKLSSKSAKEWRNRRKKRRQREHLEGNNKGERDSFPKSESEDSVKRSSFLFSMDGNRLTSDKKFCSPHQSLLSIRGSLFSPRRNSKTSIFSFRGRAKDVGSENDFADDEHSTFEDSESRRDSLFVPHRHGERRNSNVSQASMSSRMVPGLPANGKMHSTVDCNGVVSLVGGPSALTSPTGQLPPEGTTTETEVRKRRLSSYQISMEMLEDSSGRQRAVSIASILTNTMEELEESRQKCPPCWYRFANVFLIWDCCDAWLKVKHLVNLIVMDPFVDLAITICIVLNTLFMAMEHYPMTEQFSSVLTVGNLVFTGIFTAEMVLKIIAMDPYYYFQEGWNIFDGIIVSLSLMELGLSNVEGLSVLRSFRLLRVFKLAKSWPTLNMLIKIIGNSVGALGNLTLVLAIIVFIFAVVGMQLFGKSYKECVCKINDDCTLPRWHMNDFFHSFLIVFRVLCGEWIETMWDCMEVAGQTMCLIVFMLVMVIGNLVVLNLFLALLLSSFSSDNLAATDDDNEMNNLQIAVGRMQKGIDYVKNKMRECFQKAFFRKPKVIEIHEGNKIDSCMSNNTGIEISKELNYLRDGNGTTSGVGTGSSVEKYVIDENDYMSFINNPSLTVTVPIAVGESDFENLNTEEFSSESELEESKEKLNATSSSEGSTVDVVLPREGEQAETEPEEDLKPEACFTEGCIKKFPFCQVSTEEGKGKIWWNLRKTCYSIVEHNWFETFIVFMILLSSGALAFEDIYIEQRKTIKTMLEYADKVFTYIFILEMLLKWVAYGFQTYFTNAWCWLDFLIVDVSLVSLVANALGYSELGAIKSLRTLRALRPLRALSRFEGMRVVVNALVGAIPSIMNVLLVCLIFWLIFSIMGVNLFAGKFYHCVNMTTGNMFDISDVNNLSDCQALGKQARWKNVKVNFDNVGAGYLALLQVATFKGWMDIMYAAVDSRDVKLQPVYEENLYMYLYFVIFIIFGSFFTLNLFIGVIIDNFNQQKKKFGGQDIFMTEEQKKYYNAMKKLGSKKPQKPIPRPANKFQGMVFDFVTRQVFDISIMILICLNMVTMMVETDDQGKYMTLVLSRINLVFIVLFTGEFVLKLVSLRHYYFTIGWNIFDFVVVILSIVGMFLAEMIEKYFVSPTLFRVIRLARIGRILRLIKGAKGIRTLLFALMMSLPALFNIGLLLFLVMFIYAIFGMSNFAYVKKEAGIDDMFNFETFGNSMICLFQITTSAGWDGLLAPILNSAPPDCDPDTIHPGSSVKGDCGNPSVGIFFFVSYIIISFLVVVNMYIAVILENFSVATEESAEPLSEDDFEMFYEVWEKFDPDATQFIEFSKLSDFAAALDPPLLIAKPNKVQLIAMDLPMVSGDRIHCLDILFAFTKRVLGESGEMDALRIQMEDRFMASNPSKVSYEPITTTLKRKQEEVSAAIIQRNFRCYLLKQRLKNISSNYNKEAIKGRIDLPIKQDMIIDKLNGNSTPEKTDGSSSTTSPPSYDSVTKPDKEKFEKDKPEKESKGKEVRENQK

Regarding `O=C(NC(c1cccc(C(F)(F)F)c1F)C1CC1)c1ccc(S(=O)(=O)Nc2nccs2)cc1` (centres unmarked) [Example 119, N-{cyclopropyl[2-fluoro-3-(trifluoromethyl)phenyl]methyl}-4-[(1,3-thiazol-2-ylamino)sulfonyl]benzamide], the pIC50 is 5.89.

On to `O=C(NCc1cc(C(F)(F)F)ccc1Cl)c1ccc(S(=O)(=O)Nc2nccs2)cc1` [Example 120, N-[2-chloro-5-(trifluoromethyl)benzyl]-4-[(1,3-thiazol-2-ylamino)sulfonyl]benzamide], for which the pIC50 is 6.30.

In the case of `O=C(NCc1ccccc1SC(F)(F)F)c1ccc(S(=O)(=O)Nc2nccs2)cc1` [Example 122, 4-[(1,3-Thiazol-2-ylamino)sulfonyl]-N-{2-[(trifluoromethyl)thio]benzyl}benzamide], the pIC50 is 5.89.

As to `CC(C)(NC(=O)c1ccc(S(=O)(=O)Nc2nccs2)cc1)c1ccc(C(F)(F)F)cc1` [Example 123, N-{1-methyl-1-[4-(trifluoromethyl)phenyl]ethyl}-4-[(1,3-thiazol-2-ylamino)sulfonyl]benzamide], the pIC50 is 5.84.

For the compound `CC(C)(NC(=O)c1ccc(S(=O)(=O)Nc2nccs2)cc1)c1ccc(Cl)cc1` [Example 124, N-[1-(4-chlorophenyl)-1-methylethyl]-4-[(1,3-thiazol-2-ylamino)sulfonyl]benzamide], the pIC50 is 5.74.

`CC(C)(NC(=O)c1ccc(S(=O)(=O)Nc2nccs2)cc1)c1cccc(C(F)(F)F)c1` [Example 125, N-{1-methyl-1-[3-(trifluoromethyl)phenyl]ethyl}-4-[(1,3-thiazol-2-ylamino)sulfonyl]benzamide]: the pIC50 is 5.19.

For `O=C(NCc1cc(Cl)ccc1Cl)c1ccc(S(=O)(=O)Nc2nccs2)cc1` [Example 126, N-(2,5-dichlorobenzyl)-4-[(1,3-thiazol-2-ylamino)sulfonyl]benzamide], the pIC50 was 6.54.

Regarding `CC(CNC(=O)c1ccc(S(=O)(=O)Nc2nccs2)cc1)c1ccc(Cl)cc1` (centres unmarked) [Example 133, N-[2-(4-chlorophenyl)propyl]-4-[(1,3-thiazol-2-ylamino)sulfonyl]benzamide], the pIC50 is 5.94.

On to `O=C(NC1(Cc2ccc(Cl)cc2)CC1)c1ccc(S(=O)(=O)Nc2nccs2)cc1` [Example 134, N-[1-(4-chlorobenzyl)cyclopropyl]-4-[(1,3-thiazol-2-ylamino)sulfonyl]benzamide], for which the pIC50 is 5.64.

`Cc1cc(CC(NC(=O)c2ccc(S(=O)(=O)Nc3nccs3)cc2)c2cccc(Cl)c2)on1` (centres unmarked) [Example 136, N-[1-(3-chlorophenyl)-2-(3-methylisoxazol-5-yl)ethyl]-4-[(1,3-thiazol-2-ylamino)sulfonyl]benzamide]: the pIC50 is 5.37.

On to `O=C(NC1(c2ccc(Cl)cc2)CC1)c1ccc(S(=O)(=O)Nc2nccs2)cc1` [Example 139, N-[1-(4-chlorophenyl)cyclopropyl]-4-[(1,3-thiazol-2-ylamino)sulfonyl]benzamide], for which the pIC50 is 5.78.

Turning to `O=C(NCCOc1cccc(Cl)c1)c1ccc(S(=O)(=O)Nc2nccs2)cc1` [Example 144, N-[2-(3-chlorophenoxy)ethyl]-4-[(1,3-thiazol-2-ylamino)sulfonyl]benzamide], the pIC50 was 5.93.

On to `CC(CNC(=O)c1ccc(S(=O)(=O)Nc2nccs2)cc1)Oc1ccccc1Cl` (centres unmarked) [Example 147, N-[2-(2-chlorophenoxy)propyl]-4-[(1,3-thiazol-2-ylamino)sulfonyl]benzamide], for which the pIC50 is 5.60.

For `O=C(NCCOc1ccccc1Cl)c1ccc(S(=O)(=O)Nc2nccs2)cc1` [Example 148, N-[2-(2-chlorophenoxy)ethyl]-4-[(1,3-thiazol-2-ylamino)sulfonyl]benzamide], the pIC50 is 5.60.

Turning to `O=C(NC1CCc2ccccc21)c1ccc(S(=O)(=O)Nc2nccs2)cc1` (centres unmarked) [Example 158, N-(2,3-dihydro-1H-inden-1-yl)-4-[(1,3-thiazol-2-ylamino)sulfonyl]benzamide], the pIC50 was 5.62.

For `O=C(NCCc1ccccc1)c1ccc(S(=O)(=O)Nc2nccs2)cc1` [Example 163, N-(2-phenylethyl)-4-[(1,3-thiazol-2-ylamino)sulfonyl]benzamide], the pIC50 is 5.30.

As for `COc1ccccc1CCNC(=O)c1ccc(S(=O)(=O)Nc2nccs2)cc1` [Example 165, N-[2-(2-methoxyphenyl)ethyl]-4-[(1,3-thiazol-2-ylamino)sulfonyl]benzamide], the pIC50 is 5.38.

Regarding `COc1cccc(CNC(=O)c2ccc(S(=O)(=O)Nc3nccs3)cc2)c1` [Example 170, N-(3-methoxybenzyl)-4-[(1,3-thiazol-2-ylamino)sulfonyl]benzamide], the pIC50 is 5.41.

Regarding `O=C(Nc1ccc2c(n1)CCC2)c1ccc(S(=O)(=O)Nc2nccs2)cc1` [Example 172, N-(6,7-dihydro-5H-cyclopenta[b]pyridin-2-yl)-4-[(1,3-thiazol-2-ylamino)sulfonyl]benzamide], the pIC50 was 5.19.

On to `O=C(NC1Cc2ccccc2C1)c1ccc(S(=O)(=O)Nc2nccs2)cc1` [Example 173, N-(2,3-dihydro-1H-inden-2-yl)-4-[(1,3-thiazol-2-ylamino)sulfonyl]benzamide], for which the pIC50 is 5.57.

For the compound `COc1ccccc1CNC(=O)c1ccc(S(=O)(=O)Nc2nccs2)cc1` [Example 174, N-(2-methoxybenzyl)-4-[(1,3-thiazol-2-ylamino)sulfonyl]benzamide], the pIC50 was 5.40.

For `Cc1cc(NC(=O)c2ccc(S(=O)(=O)Nc3nccs3)cc2)cnc1C` [Example 175, N-(5,6-dimethylpyridin-3-yl)-4-[(1,3-thiazol-2-ylamino)sulfonyl]benzamide], the pIC50 is 5.39.

`COc1ccc(CNC(=O)c2ccc(S(=O)(=O)Nc3nccs3)cc2)cc1` [Example 176, N-(4-methoxybenzyl)-4-[(1,3-thiazol-2-ylamino)sulfonyl]benzamide]: the pIC50 is 5.35.

With `COc1ccc(NC(=O)c2ccc(S(=O)(=O)Nc3nccs3)cc2)cn1` [Example 177, N-(6-methoxypyridin-3-yl)-4-[(1,3-thiazol-2-ylamino)sulfonyl]benzamide], the pIC50 is 5.25.

On to `N#Cc1cccc(CNC(=O)c2ccc(S(=O)(=O)Nc3nccs3)cc2)c1` [Example 180, N-(3-cyanobenzyl)-4-[(1,3-thiazol-2-ylamino)sulfonyl]benzamide], for which the pIC50 is less than 6.00.

As for `O=C(c1ccc(S(=O)(=O)Nc2nccs2)cc1)N1CCC(c2ccccc2)C1` (centres unmarked) [Example 191, 4-[(3-Phenylpyrrolidin-1-yl)carbonyl]-N-1,3-thiazol-2-yl-benzenesulfonamide], the pIC50 was 5.65.

Regarding `N#Cc1ccc(OC2CCCN(C(=O)c3ccc(S(=O)(=O)Nc4nccs4)cc3)C2)cc1F` (centres unmarked) [Example 193, 4-{[3-(4-Cyano-3-fluorophenoxy)piperidin-1-yl]carbonyl}-N-1,3-thiazol-2-yl-benzenesulfonamide], the pIC50 is 5.49.

In the case of `CC1(c2ccc(Cl)cc2)CCN(C(=O)c2ccc(S(=O)(=O)Nc3nccs3)cc2)CC1` [Example 195, 4-{[4-(4-Chlorophenyl)-4-methylpiperidin-1-yl]carbonyl}-N-1,3-thiazol-2-yl-benzenesulfonamide], the pIC50 was 6.55.

As for `COc1ccccc1CC1CCCN(C(=O)c2ccc(S(=O)(=O)Nc3nccs3)cc2)C1` (centres unmarked) [Example 196, 4-{[3-(2-Methoxybenzyl)piperidin-1-yl]carbonyl}-N-1,3-thiazol-2-yl-benzenesulfonamide], the pIC50 was less than 6.00.

`Cc1ccccc1O[C@H]1CCN(C(=O)c2ccc(S(=O)(=O)Nc3nccs3)cc2)C1` [Example 198, 4-{[(3S)-3-(2-methylphenoxy)pyrrolidin-1-yl]carbonyl}-N-1,3-thiazol-2-yl-benzenesulfonamide]: the pIC50 is 5.52.

`O=C(c1ccc(S(=O)(=O)Nc2nccs2)cc1)N1CC[C@H](Oc2ccccc2Cl)C1` [Example 200, 4-{[(3S)-3-(2-chlorophenoxy)pyrrolidin-1-yl]carbonyl}-N-1,3-thiazol-2-yl-benzenesulfonamide]: the pIC50 is 5.44.

Turning to `COc1cccc(C2CCCN(C(=O)c3ccc(S(=O)(=O)Nc4nccs4)cc3)C2)c1` (centres unmarked) [Example 217, 4-{[3-(3-Methoxyphenyl)piperidin-1-yl]carbonyl}-N-1,3-thiazol-2-yl-benzenesulfonamide], the pIC50 was 5.54.

With `N#CCCN(Cc1ccccc1)C(=O)c1ccc(S(=O)(=O)Nc2nccs2)cc1` [Example 218, N-benzyl-N-(2-cyanoethyl)-4-[(1,3-thiazol-2-yl-amino)sulfonyl]benzamide], the pIC50 was 4.67.

Consider `O=C(c1ccc(S(=O)(=O)Nc2nccs2)cc1)N1CCC(O)(c2cccc(F)c2)CC1` [Example 220, 4-{[4-(3-Fluorophenyl)-4-hydroxypiperidin-1-yl]carbonyl}-N-1,3-thiazol-2-yl-benzenesulfonamide], for which the pIC50 is less than 6.00.

As for `O=C(c1ccc(S(=O)(=O)Nc2nccs2)cc1)N1CCCC(Cc2ccc(F)cc2)C1` (centres unmarked) [Example 222, 4-{[3-(4-Fluorobenzyl)piperidin-1-yl]carbonyl}-N-1,3-thiazol-2-yl-benzenesulfonamide], the pIC50 is 6.01.

Consider `COc1ccccc1C1CN(C(=O)c2ccc(S(=O)(=O)Nc3nccs3)cc2)CCO1` (centres unmarked) [Example 232, 4-{[2-(2-Methoxyphenyl)morpholin-4-yl]carbonyl}-N-1,3-thiazol-2-yl-benzenesulfonamide], for which the pIC50 is 5.47.

`O=C(c1ccc(S(=O)(=O)Nc2nccs2)cc1)N1CCC(O)(c2ccc(Cl)cc2)CC1` [Example 236, 4-{[4-(4-Chlorophenyl)-4-hydroxypiperidin-1-yl]carbonyl}-N-1,3-thiazol-2-ylbenzenesulfonamide]: the pIC50 was 5.51.

For the compound `O=C(c1ccc(S(=O)(=O)Nc2nccs2)cc1)N1CCCCC1c1ccccc1` (centres unmarked) [Example 239, 4-[(2-Phenylpiperidin-1-yl)carbonyl]-N-1,3-thiazol-2-yl-benzenesulfonamide], the pIC50 was 5.53.
